Assay results as given in patent US20210177868A1, “NOVEL USE OF PHYTOSTENONE” (Daisankasei Co., Ltd., priority 2018, published 2021).

What was measured:
SD rats = assay: application of test substance onto dehaired abdominal skin of fattened SD rats for 2 weeks; weight of each fat measured; format: in vivo, rat; settings: applied onto abdominal skin, 2 ml of 5 mg/ml ethanol solution daily for 2 weeks, n=3, p<0.05
Method: The abdomen of each fat rat was dehaired (20 mm square). Thereafter, 2 ml of a phytostenone-containing composition (30 mg/ml ethanol solution) used as a test substance, 2 ml of campest-5-en-3-one (5 mg/ml ethanol solution) used as a test substance, or 2 ml of an ethanol solution used as a control was applied gently with a cotton to individual rats divided into the groups (n=3 in each group). This operation was carried out continuously for 2 weeks. After termination of the application test, the rats were dissected, and liver fat, epididymal fat, perirenal fat, mesenteric fat, and subcutaneous fat were carefully recovered. Thereafter, the weight of each fat was measured.
Herein, in the present example, the significance test was carried out as follows. First, the mean value±standard error in each group was calculated, and a variance test was then carried out. In the case of equal variance, the significance test was carried out according to the t-test, and in the case of unequal variance, the significance test was carried out according to the Welch method.

[1] = orally administered, approximately 120 mg/day over 8 weeks; cited from earlier work

In the case of `CC(C)[C@H](C)CC[C@@H](C)[C@H]1CC[C@H]2[C@@H]3CC=C4CC(=O)CC[C@]4(C)[C@H]3CC[C@]12C` [campest-5-en-3-one], the “reduction of the amount of subcutaneous fat compared with the control (ethanol solution)” value (SD rats) is given as “approximately 16%” and the “subcutaneous fat reduction percentage” value [1] is given as 26%.
